Data from patent US11780851B2, “LRRK2 inhibitors” (H. Lundbeck A/S, priority 2021, dated 2023).
Where two headings read alike, the source gives them in different places.

Assays:
[1] = target: T1, LRRK2 WT (Homo sapiens, UniProt Q5S007); test: LRRK2 wild-type kinase activity assay (LanthaScreen TR-FRET); format: biochemical; conditions: 1 nM LRRK2 WT, 1.3 mM ATP, 3.5 h at 30° C.; n≥2 tests
T1 construct: comprises residue 970 to 2527 of the full length human wild-type LRRK2 kinase; purchased Invitrogen (Life Technologies Corporation)
Outline: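 TR-FRET measured phosphorylation of fluorescein-ERM LRRKtide by human LRRK2 residues 970–2527, wild-type or G2019S, detected with a terbium anti-phospho-LRRKtide antibody. The 520/495 nm ratio was normalized to uninhibited and inhibitor controls. IC50 came from a Hill fit, log-averaged over independent experiments.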

[2] = Rat B/P (brain disposition); format: in vivo, male Sprague-Dawley rats; conditions: for concentration at 1 h / Kp at 1 h / Kp uu at 1 h: male, Sprague-Dawley, time point 1.0 h; for Kp at 1 h / Kp uu at 1 h: brain/plasma; for Kp at 1 h: n = 3; for Kp uu at 1 h: po
Outline: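 Male Sprague-Dawley rats (n=3, standard body weight) were used to assess brain disposition. Plasma and brain homogenates underwent protein precipitation with acetonitrile containing internal standard, then LC-MS/MS measurement using an optimized method. Compound levels were quantified against matrix-matched calibration standards, and brain Kp was calculated as total brain concentration divided by total plasma concentration.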

[3] = Minipig B/P (brain disposition); format: in vivo, female Gottingen minipigs; conditions: female, Gottingen, mean ± stdev
Description: Brain disposition of Example 13 was evaluated in female Gottingen minipigs (n=3, body weight range 13-14 kg). […] At the end of infusion (2 h) the minipigs were sacrificed and terminal blood as well as brain samples were taken (n=3). Isolated plasma and brain homogenates were extracted by standard protein precipitation in acetonitrile, containing internal standard, followed by LC-MS/MS analysis using an optimized analytical method. Concentrations of test compound in plasma and brain were quantified against matrix matched calibration standards. The total plasma and brain concentration time data are presented in Table 6 alongside the calculated brain Kp (total brain concentration:total plasma concentration ratio).

T1 sequence (Q5S007 970-2527): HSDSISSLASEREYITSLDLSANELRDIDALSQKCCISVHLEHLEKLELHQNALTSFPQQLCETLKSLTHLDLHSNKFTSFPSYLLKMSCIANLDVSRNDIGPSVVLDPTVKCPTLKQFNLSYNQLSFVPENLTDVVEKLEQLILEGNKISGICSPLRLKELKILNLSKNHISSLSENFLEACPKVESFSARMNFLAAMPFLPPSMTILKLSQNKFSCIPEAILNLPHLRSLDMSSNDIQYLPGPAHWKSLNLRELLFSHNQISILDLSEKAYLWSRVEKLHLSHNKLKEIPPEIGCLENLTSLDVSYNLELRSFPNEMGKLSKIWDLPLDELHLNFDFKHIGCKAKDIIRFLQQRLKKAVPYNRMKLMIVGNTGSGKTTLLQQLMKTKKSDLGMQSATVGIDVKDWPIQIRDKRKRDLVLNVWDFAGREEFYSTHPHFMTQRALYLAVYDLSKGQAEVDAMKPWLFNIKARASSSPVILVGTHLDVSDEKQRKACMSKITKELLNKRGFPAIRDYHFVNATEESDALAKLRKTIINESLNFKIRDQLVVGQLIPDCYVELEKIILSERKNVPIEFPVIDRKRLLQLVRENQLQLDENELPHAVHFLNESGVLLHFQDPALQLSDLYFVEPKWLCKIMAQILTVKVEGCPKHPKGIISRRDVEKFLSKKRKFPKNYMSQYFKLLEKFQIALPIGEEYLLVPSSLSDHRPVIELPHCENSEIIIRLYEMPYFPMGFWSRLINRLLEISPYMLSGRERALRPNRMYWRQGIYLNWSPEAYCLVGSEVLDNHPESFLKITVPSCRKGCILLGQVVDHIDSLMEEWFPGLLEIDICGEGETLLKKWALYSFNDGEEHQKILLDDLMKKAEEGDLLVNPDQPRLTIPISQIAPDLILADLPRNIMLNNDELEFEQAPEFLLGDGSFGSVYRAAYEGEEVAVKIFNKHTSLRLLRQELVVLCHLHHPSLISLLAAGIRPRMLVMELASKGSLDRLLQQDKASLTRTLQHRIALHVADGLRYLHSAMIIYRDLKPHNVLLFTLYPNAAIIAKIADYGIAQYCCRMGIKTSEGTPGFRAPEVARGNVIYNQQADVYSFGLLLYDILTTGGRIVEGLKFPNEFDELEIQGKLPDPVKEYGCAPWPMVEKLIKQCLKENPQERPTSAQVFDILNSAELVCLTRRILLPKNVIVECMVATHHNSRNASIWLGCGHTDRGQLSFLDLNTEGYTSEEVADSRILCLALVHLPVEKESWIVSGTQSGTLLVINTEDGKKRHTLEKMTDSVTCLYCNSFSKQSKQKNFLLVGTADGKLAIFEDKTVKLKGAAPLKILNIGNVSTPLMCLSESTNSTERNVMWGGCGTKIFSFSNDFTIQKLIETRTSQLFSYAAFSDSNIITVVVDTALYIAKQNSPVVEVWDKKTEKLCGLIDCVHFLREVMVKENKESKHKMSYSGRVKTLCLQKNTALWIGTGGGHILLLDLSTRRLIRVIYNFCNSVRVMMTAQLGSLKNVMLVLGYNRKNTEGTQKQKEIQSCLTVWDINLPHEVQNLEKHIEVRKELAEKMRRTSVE

IC50 [1]: 9.6 nM | extent of brain penetration, classified from rat brain Kp,uu values ([2]; Table 8, brain free fraction from brain slice model): moderately high brain penetrant | concentration at 1 h ([2]; brain, oral gavage 1 mg/kg, Table 8, read-out: Total brain concentration): 130 ± 27 ng/mL | concentration at 1 h ([2]; brain, oral gavage 1 mg/kg, mean ± stdev, n = 3, read-out: Total brain concentration): 130 ± 27 ng/g | concentration at 1 h ([2]; brain, oral gavage 3 mg/kg, Table 8, read-out: Total brain concentration): 597 ± 169 ng/mL | concentration at 1 h ([2]; brain, oral gavage 3 mg/kg, mean ± stdev, n = 3, read-out: Total brain concentration): 597 ± 169 ng/g | concentration at 1 h ([2]; brain, oral gavage 10 mg/kg, Table 8, read-out: Total brain concentration): 2030 ± 462 ng/mL | concentration at 1 h ([2]; brain, oral gavage 10 mg/kg, mean ± stdev, n = 3, read-out: Total brain concentration): 2030 ± 462 ng/g | Kp at 1 h ([2]; oral gavage 1 mg/kg, mean ± stdev): 1.76 ± 0.04 | Kp at 1 h ([2]; oral gavage 3 mg/kg, mean ± stdev): 1.74 ± 0.1 | Kp at 1 h ([2]; oral gavage 10 mg/kg, mean ± stdev): 1.3 ± 0.22 | Kp uu at 1 h ([2]; 1 mg/kg, oral gavage 1 mg/kg, brain free fraction from rat brain slice model): 0.54 ± 0.01 | Kp uu at 1 h ([2]; 1 mg/kg, oral gavage 1 mg/kg, fubrain from brain homogenate): 0.38 ± 0.01 | Kp uu at 1 h ([2]; 3 mg/kg, oral gavage 3 mg/kg, brain free fraction from rat brain slice model): 0.54 ± 0.03 | Kp uu at 1 h ([2]; 3 mg/kg, oral gavage 3 mg/kg, fubrain from brain homogenate): 0.38 ± 0.02 | Kp uu at 1 h ([2]; 10 mg/kg, oral gavage 10 mg/kg, brain free fraction from rat brain slice model): 0.4 ± 0.07 | Kp uu at 1 h ([2]; 10 mg/kg, oral gavage 10 mg/kg, fubrain from brain homogenate): 0.28 ± 0.05 | concentration at 1 h ([2]; plasma, oral gavage 1 mg/kg, mean ± stdev, n = 3, read-out: Total plasma concentration): 74 ± 17 ng/mL | concentration at 1 h ([2]; plasma, oral gavage 3 mg/kg, mean ± stdev, n = 3, read-out: Total plasma concentration): 340 ± 78 ng/mL | concentration at 1 h ([2]; plasma, oral gavage 10 mg/kg, mean ± stdev, n = 3, read-out: Total plasma concentration): 1640 ± 655 ng/mL | concentration at 2 h ([3]; brain, IV bolus 0.28 mg/kg + IV infusion 0.60 mg/kg, time point 2.00 h, n = 3, read-out: CTotal, brain): 151 ± 11 ng/mL | Kp at 2 h ([3]; intravenous, total brain:total plasma concentration ratio, time point 2.00 h, n = 3): 1.63 ± 0.08 | concentration at 0.083 h ([3]; plasma, IV bolus 0.28 mg/kg + IV infusion 0.60 mg/kg, time point 0.083 h, n = 3, read-out: CTotal, plasma): 95 ± 18 ng/mL | concentration at 0.5 h ([3]; plasma, IV bolus 0.28 mg/kg + IV infusion 0.60 mg/kg, time point 0.50 h, n = 3, read-out: CTotal, plasma): 89 ± 20 ng/mL | concentration at 1 h ([3]; plasma, IV bolus 0.28 mg/kg + IV infusion 0.60 mg/kg, time point 1.00 h, n = 3, read-out: CTotal, plasma): 91 ± 9 ng/mL | concentration at 1.5 h ([3]; plasma, IV bolus 0.28 mg/kg + IV infusion 0.60 mg/kg, time point 1.50 h, n = 3, read-out: CTotal, plasma): 106 ± 13 ng/mL | concentration at 1.83 h ([3]; plasma, IV bolus 0.28 mg/kg + IV infusion 0.60 mg/kg, time point 1.83 h, n = 3, read-out: CTotal, plasma): 105 ± 8 ng/mL | concentration at 2 h ([3]; plasma, IV bolus 0.28 mg/kg + IV infusion 0.60 mg/kg, time point 2.00 h, n = 3, read-out: CTotal, plasma): 93 ± 11 ng/mL
SMILES: [2H]C([2H])([2H])c1c2c(nn1C1CCOCC1)OCCCn1nc(Cl)c3cnc(nc31)N2 [Example 13, 8-Chloro-3-(methyl-d3)-2-(tetrahydro-2H-pyran-4-yl)-2,4,12,13-tetrahydro-11H-5,7-(azenometheno)dipyrazolo[3,4-b:5′,1′-g][1]oxa[4,6,8]triazacycloundecine]
